Article PMC9370035, “Identification of 3-Oxindole Derivatives as Small Molecule HIV-1 Inhibitors Targeting Tat-Mediated Viral Transcription” (Molecules, 2022)

Assays:
[1] = Cell viability (resazurin-based PrestoBlue) in parallel with infectivity assay; settings: human, TZM-bl cells; for CC50 at 48 h: serial dilution starting from 100 μM, read-out: CC50 (concentration that reduces cell viability by 50%); for viability at 48 h, 3 µM: with infection of HIV-1 NL4-3 at MOI of 1
[2] = molecular target: HIV-1 reverse transcriptase (RTase) (Human immunodeficiency virus type 1 group M subtype B, UniProt P12497); settings: A3.01 cells, 10 μM, HIV-1NL4-3, 16 h after infection
Description: (forward) and 5′-[…] (reverse). […] (forward) and 5′-[…] (reverse).

[3] = system: HIV-1NL4-3; assay: HIV-1 infectivity assay in TZM-bl cells (F-Luc under HIV-1 LTR); type: cell-based; settings: for IC50 / inhibition at 3 µM: Human immunodeficiency virus 1, NL43, TZM-bl; for IC50: read-out: IC50 (inhibition of HIV-1 infection); for inhibition at 3 µM: 48 h, read-out: Inhibition of HIV-1 Infectivity (%), TZM-bl cells, 3 μM, HIV-1 NL4-3 at MOI of 1, 48 h
Description: TZM-bl cells (also referred as JC53BL-13) expressing human CD4, CXCR4, and CCR5 in order to facilitate HIV-1 infection, which contain the firefly luciferase (F-Luc) gene under the control of HIV-1 long terminal repeat (LTR) promoter was used to determine inhibitory effect of the compounds on HIV-1 infection, as described previously with minor modifications. […] Without replacement of a culture medium, the cells were then infected with the HIV-1NL4-3 strain at a multiplicity of infection (MOI) of 1 to determine the exact inhibitory effect of compounds on a single round infection. After 48 h, the inhibitory effect of the compounds was determined using a Bright Glo luciferase assay kit (Promega). The infectivity data are presented as a percentage relative to the DMSO control (vehicle). The inhibitory effects of the compounds on viral replication were determined with some minor modifications, as described previously. […] PBMCs were pre-activated with phytohemagglutinin M (PHA-M) for 3 days. The pre-activated 4 × 10^5 of PBMCs were washed with fresh media to remove excess PHA-M and then infected with HIV-1NL4-3 or HIV-1AD8 as that of A3.01 infection.

[4] = molecular target: Tat with TAR RNA (Human immunodeficiency virus type 1 group M subtype B, UniProt P04608); assay: Association of Tat with TAR RNA; parameters: species or system HIV-1; settings: manuscript in preparation [26]
[5] = system: Tat-mediated HIV-1 transcription; assay: microbe, parasite or virus in culture; type: cell-based; settings: for IC50: Human immunodeficiency virus 1, 24 h, read-out: IC50 (inhibition of Tat-mediated HIV-1 transcription)
Experimental: (§1) bl-DTR (TZM-bl-derived dual Tat reporter) cells derived from TZM-bl cells by insertion of two doxycycline-inducible lentiviral vector-expressing flag-tagged tat and Renilla-luciferase (R-Luc) genes were used to determine simultaneously both activities of Tat-mediated HIV-1 transcription and general cellular transcription, as described previously. Determination of the inhibitory effect of the compounds on Tat-mediated transcription was performed as described previously. In brief, 1 × 10^4 of bl-DTR cells cultured in 96-well plates were treated with compounds at a final concentration of 3 μM (Figure 3C) or with 1:2 serially diluted compounds at concentrations ranging from 0 to 25 μM (Figure 4 and Table 3). Subsequently, doxycycline was treated at a final concentration of 50 ng/mL to induce Tat-mediated F-Luc and R-Luc. At 24 h after treatment, the activities of F-Luc and R-Luc were determined by using a Dual-Glo™ luciferase assay system (Promega, Madison, WI, USA) according to the manufacturer’s protocols. The data are presented as a percentage relative to the DMSO control (vehicle) in the presence of doxycycline, and the experiment was performed in triplicate.

[6] = system: HIV-1NL4-3; assay: HIV-1 replication assay (p24 […]) in A3.01 T cell line; type: cell-based; settings: A3.01 cells, HIV-1NL4-3 MOI 0.1, 1.5 μM, 72 h
Experimental: (§2) TZM-bl cells (also referred as JC53BL-13) expressing human CD4, CXCR4, and CCR5 in order to facilitate HIV-1 infection, which contain the firefly luciferase (F-Luc) gene under the control of HIV-1 long terminal repeat (LTR) promoter was used to determine inhibitory effect of the compounds on HIV-1 infection, as described previously with minor modifications. In brief, 1 × 10^4 cells were cultured in 96-well plates for 24 h and then treated with compounds at a final concentration of 3 μM (Figure 1A) or with 1:2 serially diluted compounds at concentrations ranging from 0 to 25 μM (dose-response assay; Figure 1B and Table 2). Without replacement of a culture medium, the cells were then infected with the HIV-1NL4-3 strain at a multiplicity of infection (MOI) of 1 to determine the exact inhibitory effect of compounds on a single round infection. After 48 h, the inhibitory effect of the compounds was determined using a Bright Glo luciferase assay kit (Promega). The infectivity data are presented as a percentage relative to the DMSO control (vehicle). The inhibitory effects of the compounds on viral replication were determined with some minor modifications, as described previously. In brief, 5 × 10^4 cells/ well of A3.01 cells were infected with HIV-1NL4-3 at an MOI of 0.1 with the spinoculation at 300 g for 2 h at 25 °C. PBMCs were pre-activated with phytohemagglutinin M (PHA-M) for 3 days. The pre-activated 4 × 10^5 of PBMCs were washed with fresh media to remove excess PHA-M and then infected with HIV-1NL4-3 or HIV-1AD8 as that of A3.01 infection. After infection, the infectious media were replaced with fresh media (supplemented with international 10 units (IU)/mL of IL-2 for PBMCs containing 1.5 μM of compounds. At 72 h after infection, the inhibitory effect of the compounds on viral replication was determined by measuring the amount of p24, an HIV capsid protein, using an HIV-1 p24 […]™ kit (PerkinElmer, Waltham, MA, USA). Cell viability was determined by using the resazurin-based PrestoBlue™ cell viability reagent (Thermo Fisher Scientific, Waltham, MA, USA) according to the manufacturer’s protocols.

[7] = system: general cellular transcription; assay: R-Luc activity in bl-DTR cells (general cellular transcription); type: cell-based; settings: high dosages (12.5 μM and 25 μM)
Experimental: as §1

[8] = system: Tat; assay: Nuclear localization of Tat; type: cell-based, HIV-1; settings: manuscript in preparation [26]
[9] = molecular target: Tat and cyclin T1 (Human immunodeficiency virus type 1 group M subtype B, UniProt P04608); assay: Interaction between Tat and cyclin T1; settings: manuscript in preparation [26]
[10] = system: HIV-1Ad8; assay: HIV-1 replication assay (p24 […]) in PBMCs, CCR5 tropic strain; type: cell-based; settings: CCR5 tropic HIV-1Ad8 MOI 0.1, 1.5 μM, 72 h
Experimental: TZM-bl cells (also referred as JC53BL-13) expressing human CD4, CXCR4, and CCR5 in order to facilitate HIV-1 infection, which contain the firefly luciferase (F-Luc) gene under the control of HIV-1 long terminal repeat (LTR) promoter was used to determine inhibitory effect of the compounds on HIV-1 infection, as described previously with minor modifications. In brief, 1 × 10^4 cells were cultured in 96-well plates for 24 h and then treated with compounds at a final concentration of 3 μM (Figure 1A) or with 1:2 serially diluted compounds at concentrations ranging from 0 to 25 μM (dose-response assay; Figure 1B and Table 2). Without replacement of a culture medium, the cells were then infected with the HIV-1NL4-3 strain at a multiplicity of infection (MOI) of 1 to determine the exact inhibitory effect of compounds on a single round infection. After 48 h, the inhibitory effect of the compounds was determined using a Bright Glo luciferase assay kit (Promega). The infectivity data are presented as a percentage relative to the DMSO control (vehicle). The inhibitory effects of the compounds on viral replication were determined with some minor modifications, as described previously. In brief, 5 × 10^4 cells/ well of A3.01 cells were infected with HIV-1NL4-3 at an MOI of 0.1 with the spinoculation at 300 g for 2 h at 25 °C. PBMCs were pre-activated with phytohemagglutinin M (PHA-M) for 3 days. […]

[11] = system: Tat protein; assay: Cellular expression level of Tat protein; type: cell-based, HIV-1; settings: manuscript in preparation [26]
[12] = system: HIV-1NL4-3; assay: HIV-1 replication assay (p24 […]) in PBMCs, CXCR4 tropic strain; type: cell-based; settings: HIV-1NL4-3 MOI 0.1, 1.5 μM, 72 h
Experimental: as §2

[13] = system: TZM-bl cells; assay: Cell viability (resazurin-based PrestoBlue) in parallel with infectivity assay; settings: 3 μM, with infection of HIV-1 NL4-3 at MOI of 1
[14] = molecular target: T1, HIV-1 integrase (Human immunodeficiency virus type 1 group M subtype B, UniProt P04585); assay: HIV-1 integrase assay kit; type: biochemical; settings: 10 μM
T1 construct: purchased XpressBio, Frederick, MD, USA
Experimental: The integrase activity was determined using an HIV-1 integrase assay kit (XpressBio, Frederick, MD, USA), according to the manufacturer’s protocols. In brief, a 96-well plate coated with donor substrate (DS) DNA was blocked with blocking buffer for 30 min at 37 °C. One hundred μL of HIV-1 integrase diluted with 1:300 onto reaction buffer was added to the plate, and the plate was then incubated for 30 min at 37 °C. Subsequently, 50 μL of compounds were added to the plate at final concentrations of 10 and 20 μM. At 5 min after addition of compounds, 50 μL of target substrate DNA diluted at 1:100 was added to the plate and incubated for 30 min at 37 °C. The plate was washed and then incubated with 100 μL of horse radish peroxidase antibody solution for 30 min at 37 °C. Integrase activity was assessed by measuring the peroxidase activity reacted with 3,3′,5,5′-tetramethylbenzidine substrate at optical density […]. The experiment was performed in triplicate.

Chain of Tat and cyclin T1 (P04608 whole entry): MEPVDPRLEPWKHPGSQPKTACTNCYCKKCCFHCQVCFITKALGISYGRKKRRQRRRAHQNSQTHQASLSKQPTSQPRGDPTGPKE
Chain of Tat with TAR RNA (P04608 whole entry): as above

## O=C1Nc2ccc(Cl)cc2[C@@](C#CC2CC2)(C(F)(F)F)O1 [EFV, efavirenz, reference compound]
[1]
  CC50 at 48 h: 34200 ± 590 nM
[2]
  Inhibition of RTase activity (level of HIV-1 RT product): inhibited
[3]
  IC50: < 50 nM

## COC(=O)C1(CC=C(Cl)Cl)Nc2cc(C)cc(C)c2C1=O (stereo not drawn) [Compound 6g, Methyl 2-(3,3-dichloroallyl)-4,6-dimethyl-3-oxindole-2-carboxylate]
[4]
  Inhibition of association of Tat with TAR RNA: did not inhibit
other
  melting point: > 300 °C
[1]
  viability at 48 h, 3 µM: 87.9 ± 0.82%
  CC50 at 48 h: 43600 ± 10500 nM
[5]
  IC50: 2850 ± 630 nM
[6]
  Inhibitory effect on viral replication (p24): half inhibition
[7]
  R-Luc activity: decrease in R-Luc activity
[8]
  Inhibition of nuclear localization of Tat: did not inhibit
[9]
  Inhibition of interaction between Tat and cyclin T1: did not inhibit
[10]
  Inhibitory effect on viral replication (p24): inhibited replication
[11]
  Inhibition of cellular expression level of Tat protein: did not inhibit
[3]
  inhibition at 3 µM: 85.4 ± 1.44%
  IC50: 1280 ± 959 nM
[12]
  Inhibitory effect on viral replication (p24): half inhibition

## CC[C@H](CO)Nc1nc(NCc2ccccc2)c2ncn(C(C)C)c2n1 [seliciclib, Seliciclib, reference compound]
[5]; bl-DTR cells, 3 μM, doxycycline 50 ng/mL, 24 h
  Tat-induced transcriptional activity (F-Luc): specific inhibition
[7]
  R-Luc activity: decrease in R-Luc activity

## COC(=O)C1(C/C=C/Cl)Nc2cc(C)cc(C)c2C1=O (stereo not drawn) [Compound 6f, Methyl (E)-2-(3-chloroallyl)-4,6-dimethyl-3-oxindole-2-carboxylate]
[4]
  Inhibition of association of Tat with TAR RNA: did not inhibit
other
  melting point: > 300 °C
[1]
  viability at 48 h, 3 µM: 93 ± 5.39%
  CC50 at 48 h: 51000 ± 4440 nM
[13]
  Cell Viability (%): without cytotoxicity
[5]
  IC50: 1200 ± 40 nM
[5]; bl-DTR cells, concentration response
  Concentration of complete inhibition of Tat-induced transcriptional activity: approximately 6 μM
[6]
  Inhibitory effect on viral replication (p24): near-complete abrogation
[8]
  Inhibition of nuclear localization of Tat: did not inhibit
[9]
  Inhibition of interaction between Tat and cyclin T1: did not inhibit
[10]
  Inhibitory effect on viral replication (p24): inhibited replication
[11]
  Inhibition of cellular expression level of Tat protein: did not inhibit
[3]
  inhibition at 3 µM: 91.9 ± 1.78%
  IC50: 458 ± 22.7 nM
[12]
  Inhibitory effect on viral replication (p24): near-complete abrogation

## Cc1nnc(C(=O)NC(C)(C)c2nc(C(=O)NCc3ccc(F)cc3)c(O)c(=O)n2C)o1 [RAL, raltegravir]
[14]
  Inhibition of integrase activity: inhibited

## Methyl (E)-2-(3-chloroallyl)-5-methyl-3-oxindole-2-carboxylate [Compound 6d]
[13]
  Cell Viability (%): 96.96 ± 9.15%
[5]; bl-DTR cells, 0 to 25 μM
  Inhibition of Tat-induced HIV-1 transcription, concentration response: did not inhibit
[3]; TZM-bl cells, 3 μM, HIV-1 NL4-3 at MOI of 1, 48 h
  Inhibition of HIV-1 Infectivity (%): 0.00 ± 10.66%

## C[C@@H]1CCO[C@H]2Cn3cc(C(=O)NCc4ccc(F)cc4F)c(=O)c(O)c3C(=O)N12 [DOL, dolutegravir]
[14]
  Inhibition of integrase activity: inhibited
